Structures can show the parent of a compound that is named as a salt.
System: E. coli clinical isolates
Experiment: screen of strains in broth medium containing FAC
Assay type: cell-based
Parameters: key to colour: Red, Green, Black or Purple mean strong colour; Red, Green, Black or Purple mean strong colour; Red, Green, Black or Purple mean strong colour; Red, Green, Black or Purple mean strong colour; +/− means less colour than strong; Tr means a trace of colour, less than +/−; — means no colour
Conditions: for colour: 37° C. 18 hours
Source text: In order to obtain a fuller picture of the sensitivity of the substrates, they were screened with 100 different clinical isolates of E. coli in a liquid medium containing FAC. The isolates were chosen at random from the Microbiology Department, Freeman Hospital, Newcastle Upon Tyne, UK. The effectiveness of the new substrates was compared with three other media which all contained indoxyl-β-D-glucuronides. One was a commercial medium, CPS ID 3 (bioMérieux SA, Lyon, France). […] This medium was employed as a control. Among the β-D-glucuronidase producing strains of E. coli there is a large variation in the quantity of the enzyme produced and it is almost certain that the CPS ID 3 medium has been rigorously optimised to allow good growth of all the target organisms and maximum expression of the target enzymes. Therefore, two indoxyl glucuronides, X-β-D-glucuronide CHA salt and Rose-β-D-glucuronide CHA salt were also tested in a simple agar medium to allow a direct comparison of the sensitivity of these Indoxyl glucuronides when used in a medium that has not been optimised for the growth of the target organism. The comparison of the results for Rose-β-D-glucuronide and the CPS ID 3 medium was of particular significance as the commercial medium also uses Rose-β-D-glucuronide for the detection of E. coli. For consistency, the four glucuronides were all chosen as their CHA salts. As already stated, it is not anticipated that the salt form is critical to their performance. Currently. X-β-D-glucuronide is often used as either the CHA salt or the sodium salt. Brenner and colleagues [K. P. Brenner et al, Appl. Environ. Microbiol., 59, 3534-3544, (1993)] found no difference in the performance of the CHA and sodium salt forms with their application using indoxyl-β-D-glucuronide, neither in respect of colour development nor in the recovery of E. coli.
The two indoxyl glucuronides used produce insoluble endpoints following hydrolysis, as does the CPS ID 3 medium. It was therefore necessary to test these two substrates on agar plates. In contrast, catechol-β-D-glucuronide (1) and DHN-β-D-glucuronide (2b) give much more soluble endpoints best suited to liquid media and were therefore tested in a broth medium. Each broth was prepared using proteose peptone (Oxoid, Basingstoke, UK) (2 g), NaCl (1 g) and FAC (100 mg) in DI water (180 mL). This mixture was autoclaved and cooled to room temperature before being dispensed into bijoux (100×1.8 mL). Catechol β-D-glucuronide CHA salt (1) or DHN-β-D-glucuronide CHA salt (2b) (60 mg) were each dissolved in water (20 mL) and filtered to sterilize before being aseptically dispensed into successive bijoux (0.2 mL) containing the broth solution. The broth/substrate solutions were then inoculated with bacterial suspensions made up to 0.5 McFarland standard (2 μL per bijoux). X-β-D-glucuronide CHA salt (Glycosynth Ltd, Warrington, UK) (10 mg) was dissolved in NMP (200 μL). Rose-β-D-glucuronide CHA salt (Glycosynth Ltd, Warrington, UK) (20 mg) was dissolved in NMP (200 μL). These solutions were then added to Columbia agar (Oxoid, Basingstoke, UK) (100 mL) and inoculated with bacterial suspensions made up to 0.5 McFarland standard (1 μL). The plates and broths were incubated at 37° C. for 18 hours in air.

[1] = 100 E. coli strains after 18 h incubation, broth

O=C(O)C1OC(Oc2ccccc2O)C(O)C(O)C1O [Compound 1, Catechol β-D-Glucuronide CHA Salt]
% Sensitivity [1]: 83%
Negative strains [1]: 17
Positive strains [1]: 83
colour (E. coli 260262P, broth): Black
colour (E. coli 260280Z, broth): Black
colour (E. coli 260310H, broth): Black
colour (E. coli 260313A, broth): —
colour (E. coli 260316T, broth): —
colour (E. coli 260327V, broth): Black
colour (E. coli 260330Y, broth): Black
colour (E. coli 260333P, broth): —
colour (E. coli 260345F, broth): Black
colour (E. coli 260348K, broth): Black
colour (E. coli 260354W, broth): Black
colour (E. coli 260364H, broth): Black
colour (E. coli 260370C, broth): Black
colour (E. coli 260375E, broth): Black
colour (E. coli 260390B, broth): —
colour (E. coli 260396Z, broth): Black
colour (E. coli 260398Q, broth): Black
colour (E. coli 260400N, broth): —
colour (E. coli 260401Q, broth): Black
colour (E. coli 260402H, broth): Black
colour (E. coli 260404W, broth): Black
colour (E. coli 260405P, broth): Black
colour (E. coli 260406A, broth): —
colour (E. coli 260406Y, broth): Black
colour (E. coli 260407F, broth): Black
colour (E. coli 260408C, broth): Black
colour (E. coli 260411Z, broth): Black
colour (E. coli 260412Q, broth): Black
colour (E. coli 260414H, broth): Black
colour (E. coli 260415Y, broth): Black
colour (E. coli 260416W, broth): Black
colour (E. coli 260417P, broth): Black
colour (E. coli 260422Y, broth): Black
colour (E. coli 260424P, broth): Black
colour (E. coli 260425A, broth): Black
colour (E. coli 260426F, broth): Black
colour (E. coli 260428T, broth): Black
colour (E. coli 260431N, broth): Black
colour (E. coli 260432E, broth): Black
colour (E. coli 260433H, broth): Black
colour (E. coli 260434Y, broth): Black
colour (E. coli 260435W, broth): Black
colour (E. coli 260436P, broth): Black
colour (E. coli 260437A, broth): —
colour (E. coli 260438F, broth): Black
colour (E. coli 260439C, broth): Black
colour (E. coli 260440S, broth): Black
colour (E. coli 260441G, broth): Black
colour (E. coli 260458Y, broth): Black
colour (E. coli 260459W, broth): Black
colour (E. coli 260463D, broth): Black
colour (E. coli 260464G, broth): Black
colour (E. coli 260471B, broth): —
colour (E. coli 260478N, broth): —
colour (E. coli 260479Q, broth): Black
colour (E. coli 260480M, broth): Black
colour (E. coli 260481J, broth): Black
colour (E. coli 260483R, broth): —
colour (E. coli 260485D, broth): Black
colour (E. coli 260486L, broth): Black
colour (E. coli 260492J, broth): Black
colour (E. coli 260494B, broth): Black
colour (E. coli 260495R, broth): Black
colour (E. coli 260497D, broth): Black
colour (E. coli 260502G, broth): Black
colour (E. coli 260503Z, broth): Black
colour (E. coli 260504N, broth): Black
colour (E. coli 260505Q, broth): —
colour (E. coli 260506E, broth): Black
colour (E. coli 260508Y, broth): Black
colour (E. coli 260509W, broth): Black
colour (E. coli 260510R, broth): Black
colour (E. coli 260511X, broth): Black
colour (E. coli 260514G, broth): —
colour (E. coli 260515Z, broth): Black
colour (E. coli 260521S, broth): Black
colour (E. coli 260522Z, broth): Black
colour (E. coli 260532S, broth): Black
colour (E. coli 260533G, broth): Black
colour (E. coli 260536Q, broth): Black
colour (E. coli 260537E, broth): —
colour (E. coli 260538H, broth): —
colour (E. coli 260539Y, broth): Black
colour (E. coli 260541R, broth): Black
colour (E. coli 260545G, broth): Black
colour (E. coli 260547N, broth): Black
colour (E. coli 260548Q, broth): Black
colour (E. coli 260549E, broth): Black
colour (E. coli 260553X, broth): —
colour (E. coli 260554D, broth): Black
colour (E. coli 260555L, broth): Black
colour (E. coli 260563B, broth): Black
colour (E. coli 260564R, broth): Black
colour (E. coli 260578D, broth): —
colour (E. coli 2603121P, broth): —
colour (E. coli 2604399E, broth): Black
colour (E. coli O157 non-toxigenic, broth): —
colour of positive solutions (broth with FAC, in words): greyish-black solutions, sometimes with black flakes
